The record followed here is PMC4389368, “Sarmentine, a natural herbicide from Piper species with multiple herbicide mechanisms of action” (Frontiers in Plant Science, 2015).

Experiment [1] relates to T1, photosystem II QB protein (D1).
T1 construct: gene psbA; isolated thylakoid membranes, wild-type; with photosystem II complex
Description: oxygen evolution in isolated thylakoid membranes. The experiment is classed as biochemical, Amaranthus retroflexus.

For experiment [2], the target named is T2, enoyl-ACP reductase (ENR) (Arabidopsis thaliana, UniProt Q9SLA8).
T2 construct: gene MOD1
T2 sequence (Q9SLA8 75-390): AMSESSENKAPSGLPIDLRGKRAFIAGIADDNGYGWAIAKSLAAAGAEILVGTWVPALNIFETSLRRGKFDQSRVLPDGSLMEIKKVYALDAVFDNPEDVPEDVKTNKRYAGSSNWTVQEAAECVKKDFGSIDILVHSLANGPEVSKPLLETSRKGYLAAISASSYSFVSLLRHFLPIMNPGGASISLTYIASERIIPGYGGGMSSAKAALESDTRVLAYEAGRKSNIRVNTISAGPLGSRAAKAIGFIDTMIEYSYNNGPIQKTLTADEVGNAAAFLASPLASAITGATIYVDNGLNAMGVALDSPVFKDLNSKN
Description: NADH oxidation (A340) with purified recombinant enzyme. The experiment is classed as biochemical.

The target in experiment [3] is T3, photosystem II QB protein (D1) (Spinacia oleracea, UniProt P69560).
T3 construct: gene psbA; isolated thylakoid membranes; with photosystem II complex
Description: […]-atrazine displacement on spinach thylakoid membranes. The format is binding.

Each structure is given as a SMILES string.

One may read the IC50 as the concentration needed to halve the response being measured. As usually defined, the Ki is a measure of affinity in units of concentration, obtained from inhibition or displacement. In the case of `CCCCC/C=C/C=C/C(=O)N1CCCC1` [Sarmentine, 1-(1-pyrrolidinyl)-(2E,4E)-2,4-decadien-1-one], the IC50 in experiment [1] came out at 1.72 µM; in experiment [2], 18.3 µM. For the same compound, the inhibitory constant (Ki) in experiment [3] is 1.5 µM.

As to `CCNc1nc(Cl)nc(NC(C)C)n1` [atrazine], in experiment [1], inhibition was half-maximal at 0.6 µM (IC50).
